The nature of series [1]: Zn2+ chelation, spectrophotometric and 1H NMR. The series is classed as physicochemical. The following applies: 1H NMR in DMSO-d6, ratios 1:1, 1:2, 2:1, up to 72 h. As to the method: To test direct binding of Zn^2+ by NTZ in solution, we tested a range of concentrations of both NTZ and TIZ and scanned the solutions spectrophotometrically using an OLIS Cary-14 (OLIS Instruments Co., Bogart Ga.). Absolute spectra were recorded over a UV/Vis range from 220 nm to 700 nm. Spectral shifts in the 418 nm range would be attributable to changes in resonance within the thiazole ring that would result if Zn^2+ were coordinated by NTZ (9).
Chelation experiments were also performed utilizing NTZ and TIZ in DMSO-d6 (0.5 mL) with ZnCl2 using a 300 MHz Varian MercuryPlus spectrometer. Specifically, three ratios of NTZ to Zn^2+ were investigated (1:1, 1:2, 2:1) where NTZ was held constant (4 mg, 13 μmoles) while varying ZnCl2 (1.8 mg, 13 μmoles or 3.5 mg, 26 μmoles) or NTZ (8 mg, 26 μmoles) with ZnCl2 (1.8 mg, 13 μmoles). Three ratios of TIZ to Zn^2+ were also investigated (1:1, 1:2, 2:1) where TIZ was held constant (4 mg, 15 μmoles) while varying ZnCl2 (2.1 mg, 15 μmoles or 4.1 mg, 30 μmoles) or TIZ (8 mg, 30 μmoles) with ZnCl2 (2.1 mg, 15 μmoles). ^1H NMR spectra were then obtained after mixing for 5 min, 24 h, 48 h, and 72 h at room temperature. Any chelation event would be evidenced by shifting or broadening of the thiazole and benzene protons as well as loss of the amide proton.

For series [2] the following is noted: reference (9); cited from earlier work.
Series [3] relates to EAEC JM221 (AAF/I fimbriae). In words: Hemagglutination of sheep erythrocytes, EAEC JM221. Further: key: +++ = strong hemagglutination reaction; + weak; − no hemagglutination. Particulars: EAEC JM221 grown in MinA-G with 20 μg/ml NTZ. The series is classed as cell-based, Escherichia coli. As to the method: HA assays were performed in 96-well microplates as described in (1). Bacteria grown over night without shaking ([…]) were suspended in PBS and diluted to OD660 of […] was mixed with an equal volume of 3% (vol/vol) sheep erythrocyte suspension containing 1% mannose, except when type I fimbriae producing strains were assayed. In the latter, bacteria were grown statically in LB medium (with and without NTZ) for 48 h and HA was determined with guinea pig erythrocytes. HA reactions were incubated at 4° C. for […] HA was determined visually against controls receiving no NTZ. All assays were prepared in triplicate and repeated twice.

The subject of a further series is E. coli biofilm. Put plainly: E. coli biofilm assay (activity tables). The series is classed as cell-based, Escherichia coli. The essentials: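 E. coli strain 042 inoculated 1:100 with NTZ-containing medium and grown statically at 37 °C for 24 h. Growth measured by turbidity or plate counts (cfu/ml); biofilm stained with 0.5% crystal violet and read at 570 nm; triplicate, mean ± SD.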

In series [4] the test system is S. aureus and S. epidermidis strains. Put plainly: MIC by microdilution in TSB, staphylococcal strains. The series is classed as cell-based, Staphylococcus epidermidis. The following applies: Staphylococcus aureus; staphylococcal strains incl. MRSA S. aureus, microdilution in TSB; read-out: MIC. As to the method:
Minimal inhibitory concentration testing of NTZ was done in sterile round bottom 96 well microtiter polystyrene plates (Corning Inc., Corning, N.Y.) by microdilution. Tizoxanide TIZ (deacetylated form of NTZ), denitro-NTZ (TIZ without 5-nitro group) and amoxanide AMIX (TIZ-ethylamine) were also tested. Bacteria were grown overnight and suspended in fresh TSB to an OD600 of 0.01 and 100 μl were dispensed into wells with the first well containing 200 μA NTZ and other antibiotics (DMSO control) were added to well one and serially diluted from 32 μg/ml. All compounds were tested in triplicate and plates were read visually or with a plate reader (Molecular Devices) at 8, 12 and at 24 h. MIC was determined as the first well in which no visible bacterial growth was noted relative to controls. Drug effects on aerobic growth were determined in 125 ml flasks containing 25 ml of TSB medium and following inoculation (detailed above), flasks were on a gyrorotary shaker (200 rpm) at 37° C. Final concentrations of NTZ were 0, 10 and 25 μg/ml and samples were removed at hourly intervals and absorbance determined at 600 nm.
For orientation: In broth dilution the organism is exposed to a series of concentrations in liquid medium.

≈ marks a conversion by molar mass, not a printed value. Read-outs that look alike come from different tables or passages of the source.

A word on the pKa: it is the negative logarithm of the acid dissociation constant.

Turning to `CC(=O)Oc1ccccc1C(=O)Nc1ncc([N+](=O)[O-])s1` [Nitazoxanide, 2-(acetyloxy)-N-(5-nitro-2-thiazolyl)benzamide, reference compound], in series [1], the “Chelation with ZnCl2” value is “No chelation”. Besides, the pKa in series [2] is recorded as 6.2. The “HA (sheep erythrocytes), bacterial OD660 0.5” value in series [3] is given as “−”. Further, in series [3], the “HA (sheep erythrocytes), bacterial OD660 1.0” value was “−”. The MIC was 26 µM (≈ 7.99 µg/mL) in the series with E. coli biofilm (Escherichia coli, biofilm, Furan analogues table, read-out: MIC E. coli Biofilm); 26 µM (≈ 7.99 µg/mL) in the series with E. coli biofilm (Escherichia coli, read-out: MIC (μM) E. coli Biofilm); 26.0 µM (≈ 7.99 µg/mL) with E. coli biofilm (biofilm, 2-amino-3,5-dinitrothiophene analogues table, read-out: MIC E. coli Biofilm); 26.0 µM (≈ 7.99 µg/mL) in the series on E. coli biofilm (biofilm, Thiophene analogues table, read-out: MIC E. coli Biofilm); 8 to 16 mg/L (≈ 26 to 52.1 µM) in series [4].
